Results taken from US9440938B2, “Sulfonamide derivative having PGD2 receptor antagonistic activity” (SHIONOGI & CO., LTD., priority 2005, dated 2016).
Like-named read-outs stand apart in the source and are kept apart here.

Experiments:
DP receptor [1] = biological target: T1, DP receptor (Homo sapiens, UniProt Q13258); experiment: cAMP assay with washed platelet (DP inhibitory activity in vitro); assay type: cell-based; settings: washed human platelets, 100 nM PGD2, cAMP by HTRF
T1 construct: endogenous in cells; host or cells: washed platelets from peripheral blood of a healthy volunteer
T1 sequence (Q13258 1-359): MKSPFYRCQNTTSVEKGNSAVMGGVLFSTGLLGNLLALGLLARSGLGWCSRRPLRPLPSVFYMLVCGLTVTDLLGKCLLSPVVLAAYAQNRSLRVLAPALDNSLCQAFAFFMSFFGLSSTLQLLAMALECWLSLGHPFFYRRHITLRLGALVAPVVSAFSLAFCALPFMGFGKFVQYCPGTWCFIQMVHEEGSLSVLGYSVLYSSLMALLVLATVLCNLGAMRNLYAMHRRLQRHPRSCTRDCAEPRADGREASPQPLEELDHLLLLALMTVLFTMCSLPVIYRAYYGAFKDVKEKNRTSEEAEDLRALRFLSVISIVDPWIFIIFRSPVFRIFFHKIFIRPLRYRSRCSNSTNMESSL
Procedure: 1) Preparation of Platelet and a Method of cAMP Assay
30 mL of peripheral blood was collected from a healthy volunteer using a syringe containing one ninth amount of 3.8% sodium citrate. After being centrifuged at 180 g for 10 minutes at room temperature, a supernatant was collected and used as Platelet Rich Plasma (PRP). The resulting PRP was washed with wash buffer and centrifuged three times (Washed Platelet: WP) and platelets were counted by a microcell counter. WP was added to a plate in amount of 1.5×10^8/assay and the plate was treated with 3-isobutyl-1-methylxanthin (IBMX; 0.5 mM) for 5 minutes. A reaction was initiated by adding 100 nM of PGD2 5 min after an addition of a test compound. The reaction was terminated with an addition of 1N hydrochloric acid after 2 minutes and the cells were destructed using 12% triton X-100. An amount of cAMP in the supernatant was assayed by Homogeneous Trangient Fluorescence (HTRF)

DP receptor [2] = biological target: T1, DP receptor; experiment: Receptor binding assay, [3H]-PGD2, platelet membrane; settings: [3H]-PGD2, human platelet membrane
Procedure: 2) Receptor Binding Assay
A prepared WP was homogenated and a membrane fraction was collected with high-speed centrifugation. A compound of the present invention or a reference compound A (No. IC-73 in WO 2003/097598) was added to the plate and [^3H]-PGD2 was also added. A platelet membrane, a protein concentration is 2 mg/mL, was added and mixed in the plate, and placed on ice for 2 hours. The reaction solution was transferred to a low protein-adsorptive filter and washed with a wash solution eight times using a cell harvester. After the final washing, water was removed sufficiently, and scintillator was added. DP inhibitory activity was investigated by measuring [^3H] by using Micro Beta.

OVA asthma model of rat = experiment: Test using OVA asthma model of rat (airway hyperresponsiveness, infiltration of inflammatory cells, mucus-secretion); assay type: in vivo, Brown Norway (BN) Rats; settings: po, 72 h
Procedure: Test Using OVA Asthma Model of Rat
Brown Norway (BN) Rats were sensitized by i.p. administration of 0.1 mg/mL of ovalbumin (OVA) and 1 mg of aluminum hydroxide gel. A solution of 1% OVA was aerosolized by ultrasonic nebulizer (NE-U17) and the rats were subjected to inhalation exposure of the aerosol for 30 minutes in an exposing chamber 12, 19, 26 and 33 days after the sensitization. One hour before the 4th exposure of the antigen, compounds of the present invention were administered in a dose of 10 mg/kg p.o. once a day for three days consecutively. In a control group, 0.5% of methyl cellulose was administered in place of the compound of the present invention.
Under pentobarbital anesthesia (80 mg/kg, i.p.), acetylcholine (3.9, 7.8, 15.6, 31.3, 62.5, 125, 250 and 500 μg/kg) was injected to jugular vein of the rats successively from a lower dose at intervals of 5 minutes three days after the fourth exposure to the antigen, and immediate contractile reaction of airways (an increase of insufflation pressure) was measured by a modified method of Konnzett & Ririssler. Inhibition rate of airway hyperresponsiveness against the control group was calculated based on area under the curve (AUC) obtained from concentration-response curve of acetylcholine.
After the measurement of increased hyperresponsive airway was completed, bronchoalveoli of the rats were washed with 5 mL of saline three times. Total cell number in the washings was counted by a hemacytometer under light microscope, and inhibition rates of infiltration of inflammatory cells against the control group were calculated. Further, mucin in the airway lavage fluid was measured by ELISA method using jacalin, a mucin-binding lectin, and the inhibition rates of mucus-secretion against the control group were calculated.

[3] = read-out: IC50 (50% DP-inhibitory concentration in the cAMP assay)

Compound	IC50 (DP receptor [1]; [3]) [nM]	Ki (DP receptor [2]) [nM]	also measured
CC(C)Oc1ccc(S(=O)(=O)N2CCC(Oc3ccccc3/C=C/C(=O)O)CC2)cc1 [Compound I-7]	2400		
COc1cccc(OC2CCN(S(=O)(=O)c3ccc(OC(C)C)cc3)CC2)c1/C=C/C(=O)O [Compound I-8]	2100		
CC(C)Oc1ccc(S(=O)(=O)N2CCC(Oc3ccc(Cl)cc3CCC(=O)O)CC2)cc1 [Compound I-10]	2700	30000	
CC(C)Oc1ccc(S(=O)(=O)N2CCC(Oc3ccccc3CCC(=O)O)CC2)cc1 [Compound I-11]	3000		
COc1cccc(OC2CCN(S(=O)(=O)c3ccc(OC(C)C)cc3)CC2)c1CCC(=O)O [Compound I-12]	4200		
CC(C)Oc1ccc(S(=O)(=O)N2CCC(Oc3ccc(F)cc3CCC(=O)O)CC2)cc1 [Compound I-18]	1600		
CC(C)Oc1ccc(S(=O)(=O)N2CC=C(c3ccc(Cl)c(OCC(=O)O)c3)CC2)cc1 [Compound I-30]	510		
CC(C)Oc1ccc(S(=O)(=O)N2CCC(c3ccc(Cl)c(OCC(=O)O)c3)CC2)cc1 [Compound I-31]	160	3600	
Cc1ccc(N2CCN(S(=O)(=O)c3ccc(OC(C)C)cc3)CC2)cc1OCC(=O)O [II-8]	4600		
CC(C)Oc1ccc(S(=O)(=O)N2CCN(c3ccc(Cl)c(OCC(=O)O)c3)CC2)cc1 [II-10]	410	650	
CC(C)Oc1ccc(S(=O)(=O)N2CCN(c3cccc(OCC(=O)O)n3)CC2)cc1 [II-11]	2300		
CC(C)Oc1ccc(S(=O)(=O)N2CCN(c3ccc(Cl)c(/C=C/C(=O)O)c3)CC2)cc1 [II-18]	4900		
CC(C)Oc1ccc(S(=O)(=O)N2CCN(c3ccc(Cl)c(CC(=O)O)c3)CC2)cc1 [II-20]	4300		
CC(C)Oc1ccc(S(=O)(=O)N2CCN(c3cc(F)cc(OCC(=O)O)c3)CC2)cc1 [II-25]	670	1600	
CC(C)Oc1ccc(S(=O)(=O)N2CCN(c3ccc(NC(=O)c4ccccc4)c(OCC(=O)O)c3)CC2)cc1 [II-28]	2500	3800	
CC(C)Oc1ccc(S(=O)(=O)N2CCN(c3ccc(Cl)c(OCC(=O)O)c3)CC2)cc1F [II-31]	810	3700	
COCC#Cc1cc(OCC(=O)O)cc(N2CCN(S(=O)(=O)c3ccc(OC(C)C)cc3)CC2)c1 [II-37]	1500		
Cc1cc(OCC(=O)O)cc(N2CCN(S(=O)(=O)c3ccc(OC(C)C)cc3)CC2)c1 [II-41]	3500		
CC(C)Oc1ccc(S(=O)(=O)N2CCN(c3ccc(Cl)c(OCC(=O)O)c3)C(C)C2)cc1 (stereo not shown) [II-44]	690	1600	
CC(C)Oc1ccc(S(=O)(=O)N2CCN(c3ccc(-c4nnco4)c(OCC(=O)O)c3)CC2)cc1 [II-46]	790	870	
CC(C)Oc1ccc(S(=O)(=O)N2CCN(c3ccc(NC(=O)c4ccccn4)c(OCC(=O)O)c3)CC2)cc1 [II-47]	3100	2200	
CC(C)Oc1ccc(S(=O)(=O)N2CCN(c3ccc(NC(=O)c4cccnc4)c(OCC(=O)O)c3)CC2)cc1 [II-48]	4600		
CC(C)Oc1ccc(S(=O)(=O)N2CCN(c3cc(OCC(=O)O)cc(-c4cccs4)c3)CC2)cc1 [II-51]	640	520	
CC(C)Oc1ccc(S(=O)(=O)N2CCN(c3ccc(-c4ccccc4)c(OCC(=O)O)c3)CC2)cc1 [II-53]	2300		
CC(C)Oc1ccc(S(=O)(=O)N2CCN(c3cc(F)c(F)c(OCC(=O)O)c3)CC2)cn1 [II-55]	3000		

Compound	IC50 (DP receptor [1]; [3]) [nM]	Ki (DP receptor [2]) [nM]	also measured
CC(C)Oc1ccc(S(=O)(=O)N2CCN(c3cc(OCC(=O)O)cc(-c4ccccc4)c3)CC2)cc1 [II-57]	1200		
CC(C)Oc1ccc(S(=O)(=O)N2CCN(c3ccc(NC(=O)c4ccno4)c(OCC(=O)O)c3)CC2)cc1 [II-58]	3500		
COC(=O)Nc1ccc(N2CCN(S(=O)(=O)c3ccc(OC(C)C)cc3)CC2)cc1OCC(=O)O [II-59]	4300		
Cc1cc(C(=O)Nc2ccc(N3CCN(S(=O)(=O)c4ccc(OC(C)C)cc4)CC3)cc2OCC(=O)O)no1 [II-60]	880	2600	
Cc1nnc(-c2ccc(N3CCN(S(=O)(=O)c4ccc(OC(C)C)cc4)CC3)cc2OCC(=O)O)o1 [II-61]	2100	1400	
CC(C)Oc1ccc(S(=O)(=O)N2CCN(c3ccc(C(=O)Nc4ccccc4)c(OCC(=O)O)c3)CC2)cc1 [II-62]	1100	4700	
CC(C)NC(=O)c1ccc(N2CCN(S(=O)(=O)c3ccc(OC(C)C)cc3)CC2)cc1OCC(=O)O [II-63]			inhibition in vivo at 10 mg/kg (OVA asthma model of rat; BN rats, 10 mg/kg p.o. once a day for three days, mucin in airway lavage fluid by ELISA against control group, read-out: inhibition rate (%) mucus-secretion): 79%; inhibition in vivo at 10 mg/kg (OVA asthma model of rat; BN rats, 10 mg/kg p.o. once a day for three days, total cell number in bronchoalveolar washings against control group, read-out: inhibition rate (%) infiltration of inflammatory cells): 59%; inhibition in vivo at 10 mg/kg (OVA asthma model of rat; read-out: inhibition rate (%) airway hyperresponsiveness): 41%
CC(C)Oc1ccc(S(=O)(=O)N2CCN(c3ccc(-c4ccco4)c(OCC(=O)O)c3)CC2)cc1 [II-65]	140	16000	
CC(C)OC(=O)Nc1ccc(N2CCN(S(=O)(=O)c3ccc(OC(C)C)cc3)CC2)cc1OCC(=O)O [II-67]	1700		
CC(C)NC(=O)Nc1ccc(N2CCN(S(=O)(=O)c3ccc(OC(C)C)cc3)CC2)cc1OCC(=O)O [II-68]	17000		
CC(C)Oc1ccc(S(=O)(=O)N2CCN(c3cc(OCC(=O)O)ccc3Cl)CC2)cc1 [II-69]	1400		
CC(C)Oc1ccc(S(=O)(=O)N2CCN(c3ccc(OCc4ccccc4)c(OCC(=O)O)c3)CC2)cc1 [II-71]	4100		
Cc1cnc(-c2ccc(N3CCN(S(=O)(=O)c4ccc(OC(C)C)cc4)CC3)cc2OCC(=O)O)o1 [II-73]	1000	1100	
CC(C)Oc1ccc(S(=O)(=O)N2CCN(c3ccc(-c4ncco4)c(OCC(=O)O)c3)CC2)cc1 [II-74]	520	240	
Cc1nnc(-c2ccc(N3CCN(S(=O)(=O)c4ccc(OC(C)C)cc4)CC3)cc2OCC(=O)O)s1 [II-75]	580	580	
CC(C)Oc1ccc(S(=O)(=O)N2CCN(c3ccc(OCc4ccoc4)c(OCC(=O)O)c3)CC2)cc1 [II-77]	3600		
CC(C)Oc1ccc(S(=O)(=O)N2CCN(c3ccc(Oc4ccccc4)c(OCC(=O)O)c3)CC2)cc1 [II-79]	2300		
CC(C)Oc1ccc(S(=O)(=O)N2CCN(c3ccc(C(N)=O)c(OCC(=O)O)c3)CC2)cc1 [II-81]	1800	2600	
CNC(=O)c1ccc(N2CCN(S(=O)(=O)c3ccc(OC(C)C)cc3)CC2)cc1OCC(=O)O [II-82]	1100	5000	
CCCNC(=O)c1ccc(N2CCN(S(=O)(=O)c3ccc(OC(C)C)cc3)CC2)cc1OCC(=O)O [II-83]	2000	20000	
CC(C)Oc1ccc(S(=O)(=O)N2CCN(c3ccc(-c4cnco4)c(OCC(=O)O)c3)CC2)cn1 [II-85]		1700	IC50 (DP receptor [1]): 510 nM
CC(C)Oc1ccc(S(=O)(=O)N2CCN(c3ccc(-c4nncs4)c(OCC(=O)O)c3)CC2)cc1 [II-88]	230	1500	
CC(C)Oc1ccc(S(=O)(=O)N2CCN(c3ccc(Br)c(OCC(=O)O)n3)CC2)cc1 [II-90]	590		
CC(=O)c1ccc(N2CCN(S(=O)(=O)c3ccc(OC(C)C)cc3)CC2)cc1OCC(=O)O [II-91]	1300		
